The assay deals with M19-MEL melanoma. Briefly: NCI anticancer screen, dose series, 48 h.

These results are taken from PubChem BioAssay (NCI).

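Dose response: 5 concentrations. Exposure: 48 h. Format: 96-well plates. Endpoint: linear interpolation; highest concentration if not reached. Definition used: TGI = concentration required for complete inhibition of growth.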

As for `N/C(=N\N=C\c1ccc2c(c1)OCCO2)NO`, the TGI was 98.6 µM.
